target: hQC (Homo sapiens (Human), UniProt Q16769); test: QC inhibitor assay (fluorometric / spectrophotometric QC activity assays); format: biochemical
Description: Excitation/emission wavelengths were 320/410 nm.
This novel assay was used to determine the kinetic parameters for most of the QC substrates. […] Samples consisted of the respective QC substrate, 0.3 mM NADH, 14 mM α-Ketoglutaric acid and 30 U/ml glutamate dehydrogenase in a final volume of 250 μl. Reactions were started by addition of QC and persued by monitoring of the decrease in absorbance at 340 nm for 8-15 min.
All samples were measured at 30° C., using either the […]uor Plus or the Sunrise (both from TECAN) reader for microplates. Kinetic data was evaluated using GraFit software.
For inhibitor testing, the sample composition was the same as described above, except of the putative inhibitory compound added. For a rapid test of QC-inhibition, samples contained 4 mM of the respective inhibitor and a substrate concentration at 1 KM. For detailed investigations of the inhibition and determination of K,-values, influence of the inhibitor on the auxiliary enzymes was investigated first. […] The inhibitory constant was evaluated by fitting the set of progress curves to the general equation for competitive inhibition using GraFit software.

Chain of hQC (Q16769 29-361): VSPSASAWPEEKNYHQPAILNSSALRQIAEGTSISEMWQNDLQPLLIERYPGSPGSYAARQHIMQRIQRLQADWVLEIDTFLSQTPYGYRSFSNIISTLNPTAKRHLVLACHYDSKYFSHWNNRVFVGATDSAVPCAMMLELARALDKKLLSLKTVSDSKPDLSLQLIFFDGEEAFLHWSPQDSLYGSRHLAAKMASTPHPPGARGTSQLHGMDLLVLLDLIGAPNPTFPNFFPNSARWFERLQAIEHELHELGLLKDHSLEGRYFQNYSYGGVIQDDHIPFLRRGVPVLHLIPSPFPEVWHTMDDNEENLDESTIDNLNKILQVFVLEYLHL

SMILES	IC50 [µM]
O=C1NCC(c2ccccc2)N1c1ccc2[nH]cnc2c1 (centres unmarked) [Example 3, 1-(1H-benzo[d]imidazol-5-yl)-5-phenylimidazolidin-2-one]	< 10
O=C1CSC(c2ccsc2)N1c1ccc2nc[nH]c2c1 (centres unmarked) [Example 116, 3-(1H-benzo[d]imidazol-6-yl)-2-(thiophen-3-yl)thiazolidin-4-one]	< 10
COc1ccc(C2CCCN2c2ccc3[nH]cnc3c2)cc1 (centres unmarked) [Example 102, 5-(2-(4-methoxyphenyl)pyrrolidin-1-yl)-1H-benzo[d]imidazole]	< 10
S=C1CSC(c2ccccc2)N1c1ccc2[nH]cnc2c1 (centres unmarked) [Example 118, 3-(1H-benzo[d]imidazol-5-yl)-2-phenylthiazolidine-4-thione]	< 10

Results, then the compound that gave them:

IC50 [µM]	SMILES
< 10	O=C1NCC(c2ccc(N3CCCCC3)cc2)N1c1ccc2[nH]cnc2c1 (centres unmarked) [Example 175, 1-(1H-benzo[d]imidazol-5-yl)-5-(4-(piperidin-1-yl)phenyl)imidazolidin-2-one]
< 10	CC(C)[C@H]1COC(=O)N1c1ccc2[nH]cnc2c1 [Example 68, (S)-3-(1H-benzo[d]imidazol-5-yl)-4-isopropyloxazolidin-2-one]
< 10	O=C1NCC(C2CCCCC2)N1c1ccc2[nH]cnc2c1 (centres unmarked) [Example 2, 1-(1H-benzo[d]imidazol-5-yl)-5-cyclohexylimidazolidin-2-one]
< 10	COc1ccc(C2CNC(=O)N2c2ccc3[nH]cnc3c2)cc1 (centres unmarked) [Example 5, 1-(1H-benzo[d]imidazol-5-yl)-5-(4-methoxyphenyl)imidazolidin-2-one]
